Results published in PMC10235067, “Increased renal elimination of endogenous and synthetic pyrimidine nucleosides in concentrative nucleoside transporter 1 deficient mice” (Nature Communications, 2023).

Tests used:
[1] = tested on: dihydropyrimidine dehydrogenase (DPD); conditions: cited from earlier work

Experimental for CNT1: Linearity was established for analytes over the concentration ranges observed and the lower limit of quantification of the LC–MS/MS assay was approximately 0.1 ng/ml for each analyte (Fig. S2).
Standard solutions of all nucleotide targets were serially diluted to generate calibration solutions at concentrations of 0.0, 0.0001, 0.001, 0.01, 0.1, 1.0, and 10 µg/ml. Urine samples were prepared by adding 20 µL of urine solution to 80 µL of 50:50 H2O:MeOH containing internal standard, vortexing and centrifuging at 20,000 × g; then, 50 µL aliquots were placed into glass vials, dried in a SpeedVac and reconstituted in 5% MeOH with 0.1% formic acid for injection.
Samples were quantified using a heated electrospray ionization source (HESI) on a Thermo Scientific TQS Quantiva triple quadrupole mass spectrometer, and separation was achieved using a Thermo Scientific Ultimate 3000 HPLC equipped with an Agilent 120 SB-C18 reversed-phase column (2 × 100 mm, 2.7 µm particle size) maintained at 40 °C. […] For all experiments, the capillary voltage was set to 4.5 kV with a capillary temperature of 350 °C, a vaporizer temperature of 100 °C, a sheath gas flow of 12, an auxiliary gas flow of 13, and a 1.6 sweep gas. For selected reaction monitoring (SRM) mode, Q1 and Q3 were set to 0.7 full width at half maximum (FWHM) resolution, a cycle time of 0.8 s, and a CID gas pressure of 1.5 mTorr.

In the case of `O=c1[nH]cc(F)c(=O)[nH]1` [5’-fluorouracil], the “share of elimination mediated by DPD through hepatic metabolism” value [1] is given as 80%.
In the case of `Nc1ncnc2c1ncn2[C@@H]1O[C@H](CO)[C@@H](O)[C@H]1O` [Adenosine], the “concentration in urine, Slc28a1+/+ vs Slc28a1-/-” value (CNT1; 12 h starvation) is reported as “not significantly different”.
For `Nc1ccn([C@H]2C[C@H](O)[C@@H](CO)O2)c(=O)n1` [Deoxycytidine], the “fold increase of content in urine of Slc28a1-/- mice” value (CNT1; Slc28a1-/- vs Slc28a1+/+, urine collected over 12 h starvation, 8-week-old mice, n = 6) was 44.8 fold.
